Test results reported in patent US20260041669A1, “SOLID FORMS OF A CDK INHIBITOR” (Relay Therapeutics, Inc., priority 2022, published 2026).
Converted amounts (≈) assume the structure as drawn. “And” between values parts separate entries of the source, which are not always exact repeats. Equal values may be shown once. Read-outs that look alike come from different tables or passages of the source.

Assay: Thermodynamic solubility of cocrystals (HPLC quantitation)
Format: physicochemical
Settings: for solubility at 24 h: thermodynamic from solid
Protocol: Base Buffer (FaSSGF), pH 1.6—Sodium chloride (2.03 g) was dissolved in Ca. 800 ml of deionised water in a 1 L volumetric flask. This solution was mixed thoroughly and then the pH adjusted to 1.6±0.05 with concentrated hydrochloric acid. The solution was then made to volume with deionised water and the pH recorded (pH 1.6).
FaSSGF Media—Phares SIF (simulated intestinal fluid) powder (0.06 g) was dissolved in Ca. 800 ml of base buffer (2.1.1) in a 1 L volumetric flask. This solution was mixed thoroughly and then made to volume with the same base buffer. The final pH was recorded (pH 1.7)
Acetate Base Buffer (FeSSIF), pH 5.0—Sodium hydroxide (11.90 g), acetic acid (8.25 ml) and sodium chloride (3.96 g) were dissolved in Ca. 800 ml of deionised water in a 1 L volumetric flask. This solution was mixed thoroughly and then the pH adjusted to 5.0±0.05 with 0.5M hydrochloric acid. The solution was then made to volume with deionised water and the pH recorded (pH 5.0)
FeSSIF Media—Phares SIF (simulated intestinal fluid) powder (1.12 g) was dissolved in Ca. 80 ml of base buffer (2.2.1) in a 100 ml volumetric flask. This solution was mixed thoroughly and then made to volume with the same base buffer. The final pH was recorded (pH 4.8)
Phosphate Base Buffer (FeSSIF), pH 6.5—Sodium hydroxide (0.41 g), sodium phosphate monobasic (3.95 g) and sodium chloride (6.49 g) were dissolved in Ca. 800 ml of deionised water in a 1 L volumetric flask. This solution was mixed thoroughly and then the pH adjusted to 6.5 f 0.05 with 0.5M hydrochloric acid. The solution was then made to volume with deionised water and the pH recorded (pH 6.5)
FaSSIF Media—Phares SIF (simulated intestinal fluid) powder (0.23 g) was dissolved in Ca. 80 ml of base buffer ([00300]) in a 100 ml volumetric flask. This solution was mixed thoroughly and then made to volume with the same base buffer. The final pH was recorded (pH 6.3)
DI Water (deionized water)—The pH was recorded (pH 6.1)
Thermodynamic Solubility—Sufficient sample was suspended in 0.5 ml media for a maximum anticipated concentration of Ca. 10 mg/ml of the free form of the compound. The resulting suspensions were then shaken at 25° C./750 rpm for 24 hours in DI H2O and at 37° C./750 rpm for 24 hours in simulated fluids. After equilibration, the appearance was noted, and the pH of the saturated solution was measured. Samples were then filtered through a glass ‘C’ fibre filter (Particle retention 1.2 μm), before dilution with buffer as appropriate.
Quantitation was by HPLC with reference to a standard solution of approximately 0.15 mg/ml. Different volumes of the standards and diluted sample solutions were injected. The solubility was calculated using the peak areas determined by integration of the peak found at the same retention time as the principal peak in the standard injection.
The results from the solubility measurements in deionized water (DI water), stimulated fasting state conditions in the gastric fluid (FaSGF), simulated fed state conditions in the small intestines (FeSSIF), and simulated fasting state conditions in the small intestines fluid (FaSSIF) are summarized in Table 16.

[1] = DI Water, shaken at 25° C./750 rpm for 24 hours, single replicate
[2] = FaSSGF, shaken at 37° C./750 rpm for 24 hours, average
[3] = FaSSGF, shaken at 37° C./750 rpm for 24 hours, single replicate
[4] = FeSSIF, shaken at 37° C./750 rpm for 24 hours, average
[5] = FeSSIF, shaken at 37° C./750 rpm for 24 hours, single replicate
[6] = DI Water, shaken at 25° C./750 rpm for 24 hours, average
[7] = FaSSIF, shaken at 37° C./750 rpm for 24 hours, average
[8] = FaSSIF, shaken at 37° C./750 rpm for 24 hours, single replicate

Row | Compound | Solubility [1] [mg/mL] | Average Solubility [2] [mg/mL] | Solubility [3] | Average Solubility [4] [mg/mL] | Solubility [5] | solubility at 24 h (deionized water, 25 °C, pH 6.1, water, DI Water, shaken at 25° C./750 rpm for 24 hours, average, read-out: Average Solubility) [µg/mL] | solubility at 24 h (deionized water, 25 °C, pH 6.1, water, DI Water, shaken at 25° C./750 rpm for 24 hours, single replicate, read-out: Solubility) [µg/mL] | Average Solubility [6] [mg/mL] | Average Solubility [7] [mg/mL] | Solubility [8] [mg/mL] | solubility at 24 h (FaSSGF (simulated gastric fluid, fasted state), 37 °C, pH 1.7, fassgf or other biorelevant, FaSSGF, shaken at 37° C./750 rpm for 24 hours, average, read-out: Average Solubility) [µg/mL] | solubility at 24 h (FaSSGF (simulated gastric fluid, fasted state), 37 °C, pH 1.7, fassgf or other biorelevant, FaSSGF, shaken at 37° C./750 rpm for 24 hours, single replicate, read-out: Solubility) [µg/mL] | solubility at 24 h (FaSSIF (simulated intestinal fluid, fasted state), 37 °C, pH 6.3, fassif, FaSSIF, shaken at 37° C./750 rpm for 24 hours, average, read-out: Average Solubility) [µg/mL] | solubility at 24 h (FaSSIF (simulated intestinal fluid, fasted state), 37 °C, pH 6.3, fassif, FaSSIF, shaken at 37° C./750 rpm for 24 hours, single replicate, read-out: Solubility) [µg/mL] | solubility at 24 h (FeSSIF (simulated intestinal fluid, fed state), 37 °C, pH 4.8, fessif, FeSSIF, shaken at 37° C./750 rpm for 24 hours, average, read-out: Average Solubility) [µg/mL]
1 | Cn1nc(OCC(F)F)cc1C(=O)Nc1cc([C@H]2C[C@@H](OC(=O)NC34CC(C3)C4)CO2)n[nH]1 [Componud I-3 Form A] | 0.30 (≈ 643 µM) | 0.39 | 0.38 mg/mL and 0.39 mg/mL | 0.49 | 0.62 mg/mL and 0.36 mg/mL | 300 (≈ 643 µM) | 290 (≈ 622 µM) |  |  |  |  |  |  |  | 
2 | Cn1nc(OCC(F)F)cc1C(=O)Nc1cc([C@H]2C[C@@H](OC(=O)NC34CC(C3)C4)CO2)n[nH]1 [Compound 1-5 Form A] | 0.28 (≈ 600 µM) | 0.31 | 0.31 mg/mL (≈ 665 µM) | 0.82 | 0.84 mg/mL and 0.80 mg/mL |  |  | 0.28 | 0.25 | 0.24 (≈ 515 µM) |  |  |  |  | 
3 | Cn1nc(OCC(F)F)cc1C(=O)Nc1cc([C@H]2C[C@@H](OC(=O)NC34CC(C3)C4)CO2)n[nH]1 [Compound 1-6 Form A] | 0.33 (≈ 707 µM) | 0.32 | 0.32 mg/mL (≈ 686 µM) | 0.70 | 0.66 mg/mL and 0.73 mg/mL |  |  | 0.33 | 0.31 | 0.31 (≈ 665 µM) |  |  |  |  | 
4 | Cn1nc(OCC(F)F)cc1C(=O)Nc1cc([C@H]2C[C@@H](OC(=O)NC34CC(C3)C4)CO2)n[nH]1 [Compound I-2 Form A] | 0.21 (≈ 450 µM) |  | 0.35 mg/mL (≈ 750 µM) |  | 0.92 mg/mL and 0.85 mg/mL |  |  | 0.21 |  |  | 350 (≈ 750 µM) | 340 (≈ 729 µM) | 290 (≈ 622 µM) | 290 (≈ 622 µM) | 890 (≈ 1910 µM)
5 | Cn1nc(OCC(F)F)cc1C(=O)Nc1cc([C@H]2C[C@@H](OC(=O)NC34CC(C3)C4)CO2)n[nH]1 [Compound I-4 Form A] | 0.29 (≈ 622 µM) | 0.37 | 0.37 mg/mL and 0.36 mg/mL | 0.88 | 0.94 mg/mL and 0.82 mg/mL |  |  | 0.29 | 0.29 | 0.28 (≈ 600 µM) |  |  |  |  | 
